# Test results reported in PMC8329197, “Compounds targeting OSBPL7 increase ABCA1-dependent cholesterol efflux preserving kidney function in two models of kidney disease” (Nature Communications, 2021).
# Where “and” joins values, the source holds several entries; their conditions need not be identical. Equal values may be shown once.
# What was measured:
# [1] = tested on: Adriamycin (ADR)-induced nephropathy in Balb/c mice; assay: ADR nephropathy: liver total cholesterol, cholesterol esters, triglycerides; assay type: in vivo, mouse
# [2] = tested on: Adriamycin (ADR)-induced nephropathy in Balb/c mice; assay: Adriamycin-induced nephropathy, main study: albumin/creatinine ratio and body weight
# [3] = tested on: human podocytes; assay: apoAI-mediated cholesterol efflux in human podocytes; assay type: cell-based
# Description: Cell lines were purchased from ATCC and subcultured for no more than passage 15, except for human podocytes, which were originally from Dr Jochen Reiser. Conditionally immortalized human podocytes were cultured under permissive conditions at 33 °C, in RPMI medium (Corning) containing 10% FBS (GIBCO), 1% penicillin/streptomycin, 0.01 mg/ml recombinant human insulin, 0.0055 mg/ml human transferrin (substantially iron-free), and 0.005 μg/ml sodium selenite (ITS, Corning). To induce differentiation, podocytes were cultured at 37 °C for 14 days in RPMI medium containing 10% FBS (GIBCO) and 1% penicillin/streptomycin. Differentiated podocytes were starved in RPMI-0.2% FBS for 18 h and then treated with 1 μM, 5 μM, and 10 μM of compounds freshly prepared in DMSO for 18 h at 37 °C as indicated.
# Human podocytes differentiated for 13 days were labeled for 24 h at 37 °C in RPMI medium containing 2% FBS and [^3H]-cholesterol (1 μCi/ml, American Radiolabeled Chemicals). Cells were then washed 3 times with PBS and incubated with RPMI supplemented with 0.2% fat free-BSA (Sigma) with or without compounds for 18-h at 37 °C. The compounds were used at the following concentrations: Cpd C (1 μM), Cpd A (1 μM, 5 μM) and Cpd G (1 μM, 5 μM, 10 μM). Following the 18-h incubation, human apoAI (Calbiochem) was added to the media, (20 μg/mL final concentration) and the cells were incubated for another 18 h at 37 °C. Aliquots of medium collected before (T = 0 h) and after (T = 18 h) the addition of apoAI were centrifuged at 12,000 × g for 5 min and the radioactivity in the supernatant was counted by liquid scintillation. Cells were then washed with PBS, lysed 0.1% SDS, 0.1M NaOH and the radioactivity in the lysates was quantified by liquid scintillation. apoAI-mediated cholesterol efflux, expressed as %, was calculated as the amount of label released to the medium after adding apoAI (the difference in radioactivity in the medium before and after adding ApoA1) divided by the amount of total label in each well (radioactivity released to the media plus radioactivity in the lysed cells).
# [4] = tested on: Adriamycin (ADR)-induced nephropathy in Balb/c mice; assay: ADR nephropathy: WBC, hemoglobin, hematocrit, ALT, AST; assay type: in vivo, mouse; conditions: ADR-induced nephropathy
# [5] = tested on: ABCA1 protein; assay: Cell fractionation: ABCA1 in plasma membrane and microsomal fractions of podocytes; assay type: cell-based, human; conditions: ratio; Cpd C 1 µM, Cpd A 5 µM, Cpd G 10 µM; single preparations
# Description: Lysates, or cell fractions were incubated in Laemmli buffer at 55 °C for 10 min under reducing conditions. A total of 30 μg of protein from cell lysates or one-third of the volume collected in cell fraction preparations was separated by SDS-PAGE in 4–20% gradient gels (Biorad) and proteins were then transferred to PVDF membranes. After blocking with 5% TBS-milk, membranes were probed with primary antibodies overnight at 4 °C. The following primary antibodies were used: mouse anti-ABCA1 (Abcam; 1:1000), rabbit anti-GAPDH antibody (Millipore; 1:10,000), mouse anti-actin (CP01, Millipore 1:10,000), anti-MEK, anti-ERp72, anti-V5 and anti-Na^+/K^+ ATPase (Cell Signaling; all 1:1000), and rabbit anti-OSBPL7 (Sigma; 1:1000). After washing, membranes were incubated with anti-rabbit or and anti-mouse IgG-HRP antibodies (Promega, 1:10,000). Signals were detected after incubation with Westernbright ECL HRP substrate (Advansta) and luminescence signals were captured with Azure C600 Gel Imaging workstation (Azure Biosystems Inc, USA) or X-ray films.
# Differentiated podocytes were treated with compounds Cpd C (1 μM), Cpd A (5 μM), or Cpd G (10 μM) for 18 h, washed and then harvested in ice-cold PBS. Cells were centrifuged at 1000 × g for 5 min, the supernatant was carefully removed, and the pellet resuspended in hypotonic buffer (15 mM KCl, 1.5 mM MgCl2, 10 mM HEPES and 1 mM DTT) supplemented with a protease inhibitor cocktail (Roche). Cells were disrupted with a glass douncer, and sucrose was added to achieve final concentration of 227 mM. Cell lysates were centrifuged at 1000 × g for 30 min at 4 °C. The supernatant was then transferred to a new tube and centrifuged at 10,000 × g for 15 min at 4 °C. The pellet, containing the microsomal fraction was collected and the supernatant was transferred to a new tube and centrifuged at 100,000 × g for 1 h at 4 °C. The pelleted plasma membrane fraction was collected and the supernatant, containing the organelle-free cytosolic fraction, was concentrated in Vivaspin 500 filter columns. Western blot was performed using antibodies for ABCA1 and specific markers for each membrane fraction as described above. Na^+/K^+ ATPase was used to identify the plasma membrane fraction, ERp72 as a marker for the microsomal-enriched fraction, and MEK as the control for the non-membranous cytosolic fraction.
# [6] = 28 days treatment, 25th quartile
# [7] = 28 days treatment, 75th quartile
# [8] = 28 days treatment, group maximum
# [9] = 28 days treatment, group median
# [10] = 28 days treatment, group minimum
# [11] = 28 days treatment, individual mouse values
smiles,measurement,setting,value
"Cc1oc(-c2cccc(C(F)(F)F)c2)nc1Cn1c(C)cc2cc(C(O)(C(F)(F)F)C(F)(F)F)ccc21 [Cpd C, reference compound]",LIVER CHOLESTEROL ESTERS,"[1]; ADR model, individual animals",3.92 nmol CE/ mg protein and 1.48 nmol CE/ mg protein and 3.2 nmol CE/ mg protein and 3.1 nmol CE/ mg protein
same,LIVER TOTAL CHOLESTEROL,"[1]; ADR model, individual animals",132 nmol Cholesterol/ mg protein and 89 nmol Cholesterol/ mg protein and 311 nmol Cholesterol/ mg protein and 91 nmol Cholesterol/ mg protein
same,LIVER TRIGLICERIDES,"[1]; ADR model, individual animals",48.5 nmol Triglycerides/ mg protein and 45 nmol Triglycerides/ mg protein and 67 nmol Triglycerides/ mg protein and 56 nmol Triglycerides/ mg protein
same,Hepatic triglyceride content vs. vehicle-treated controls,"[1]; ADR-challenged, 28 days",increased hepatic triglyceride content
same,Effect on weight loss,[2]; 28 days after ADR,no significant effect to prevent weight loss
same,"ACR, median","[2]; 28 days after ADR, Cpd A 30, Cpd G 100, Cpd C 10 mg/Kg, group median",6.591 mg albumin/mg creatinine
same,Reduction in ACR,"[2]; Cpd C 10 mg/Kg, 28 days",more variable reduction in ACR
same,Weight (d28),"[2]; animal weight when therapy finished, single animals",19 and 13 and 20 and 16 and 22 and 17 and 18
same,"Weight Change (as % of weight at day 0), Median","[2]; day 28 after ADR, Cpd A 30, Cpd G 100, Cpd C 10 mg/Kg",-5%
same,Weight Change (as % of weight at day 0),"[2]; day 28 after ADR, Cpd A 30, Cpd G 100, Cpd C 10 mg/Kg, single animals",5.3% and 5.6% and -15.8% and 4.8% and -15% and 0% and -10% and -5% and -27.8%
same,ACR values (mg Albumin / mg Creatinine),"[2]; spot urine 28 days after ADR, oral daily Cpd A 30, Cpd G 100, Cpd C 10 mg/Kg, single animals",97.01 mg Albumin / mg Creatinine and 0.196 mg Albumin / mg Creatinine and 5.6 mg Albumin / mg Creatinine and 6.591 mg Albumin / mg Creatinine and 5.609 mg Albumin / mg Creatinine and 28.989 mg Albumin / mg Creatinine and 87.25 mg Albumin / mg Creatinine and 19.88 mg Albumin / mg Creatinine and 5.463 mg Albumin / mg Creatinine
same,ApoA1-mediated cholesterol efflux (%) in podocytes,"[3]; 1 uM, single experiments",4.5% and 5% and 2.7% and 7.8% and 4.9% and 4.1% and 8.1%
same,Increase in apoAI-mediated cholesterol efflux vs. untreated cells,"[3]; Cpd G 10 µM, Cpd A 5 µM, Cpd C 1 µM",~2 fold
same,"ALT, Median (IQR)",[4],146 (71-682) U/L
same,"ALT, Range",[4],68-838 U/L
same,"AST, Median (IQR)",[4],165 (104-371) U/L
same,"AST, Range",[4],90-433 U/L
same,"HTC, Median (IQR)",[4],55 (45-64) %
same,"HTC, Range",[4],43-65%
same,"Hgb, Median (IQR)",[4],13.3 g/dL
same,"Hgb, Range",[4],11 to 15.9 g/dL
same,"WBC, Median (IQR)",[4],6.2 (5.5-7.9) x103cells/µL
same,"WBC, Range",[4],5.4-8.3 x103cells/µL
same,"ALT, QR(25)",[4]; [6],76.25 U/L
same,"AST, QR(25)",[4]; [6],131.25 U/L
same,"HTC, QR(25)",[4]; [6],46%
same,"Hgb, QR(25)",[4]; [6],12.5 g/dL
same,"WBC, QR(25)",[4]; [6],6.4 x 10^3 cells/ul
same,"ALT, QR(75)",[4]; [7],369.25 U/L
same,"AST, QR(75)",[4]; [7],246.25 U/L
same,"HTC, QR(75)",[4]; [7],64%
same,"Hgb, QR(75)",[4]; [7],15.4 g/dL
same,"WBC, QR(75)",[4]; [7],10.3 x 10^3 cells/ul
same,"ALT, Max",[4]; [8],838 U/L
same,"AST, Max",[4]; [8],433 U/L
same,"HTC, Max",[4]; [8],65%
same,"Hgb, Max",[4]; [8],15.9 g/dL
same,"WBC, Max",[4]; [8],11.6 x 10^3 cells/ul
same,"ALT, Median",[4]; [9],146 U/L
same,"AST, Median",[4]; [9],164.5 U/L
same,"HTC, Median",[4]; [9],55%
same,"Hgb, Median",[4]; [9],13.3 g/dL
same,"WBC, Median",[4]; [9],6.7 x 10^3 cells/ul
same,"ALT, Min",[4]; [10],68 U/L
same,"AST, Min",[4]; [10],90 U/L
same,"HTC, Min",[4]; [10],43%
same,"Hgb, Min",[4]; [10],11 g/dL
same,"WBC, Min",[4]; [10],5.4 x 10^3 cells/ul
same,Alanine Aminotransferase (ALT),[4]; [11],213 U/dL and 68 U/dL and 79 U/dL and 838 U/dL
same,Aspartate Aminotransferase (AST),[4]; [11],184 U/dL and 90 U/dL and 145 U/dL and 433 U/dL
same,Hematocrit HTC,[4]; [11],64% and 65% and 55% and 46% and 43% and 44%
same,White Blood Cells WBC,[4]; [11],10.3 x 10^3 cells/ul and 6.7 x 10^3 cells/ul and 6.5 x 10^3 cells/ul and 5.9 x 10^3 cells/ul and 5.4 x 10^3 cells/ul and 8.3 x 10^3 cells/ul and 6.4 x 10^3 cells/ul and 11.6 x 10^3 cells/ul
same,MICROSOMAL FRACTION:ABCA1/ERp72,[5],1.10 and 1.82 and 1.06
same,PLASMA MEMBRANE FRACTION: ABCA1/NaK ATPase,[5],1.10 and 0.65 and 0.77 and 1.14
